Measurements: the supplement of paper PMC10733146

Key:
Test in all cases: viability relative to DMSO control (fraction); higher = less drug effect (more viable cells)
Conditions in all cases: 48 h
SGC 0946 = compound: CC(C)N(CCCNC(=O)Nc1ccc(C(C)(C)C)cc1)C[C@H]1O[C@@H](n2cc(Br)c3c(N)ncnc32)[C@H](O)[C@@H]1O [SGC 0946]
How it was run: (§1)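 Viability is given as CellTiter-Glo luminescence relative to the median of 16 inner DMSO wells. Fresh or cryopreserved primary mononuclear tumour cells from blood, bone marrow (both Ficoll-isolated) or processed lymph node were plated at 4 × 10^4 cells per well in 384-well plates against five pre-plated compound concentrations, one well each. Incubation lasted 48 h at 37 °C and 5% CO2 in RPMI-1640 with penicillin/streptomycin, L-glutamine and human serum.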

Roscovitine = compound: CC[C@H](CO)Nc1nc(NCc2ccccc2)c2ncn(C(C)C)c2n1 [Roscovitine]
How it was run: as §1

Vindesine = compound: CC[C@]1(O)C[C@@H]2CN(CCc3c([nH]c4ccccc34)[C@@](C(=O)OC)(c3cc4c(cc3OC)N(C)[C@H]3[C@@](O)(C(N)=O)[C@H](O)[C@]5(CC)C=CCN6CC[C@]43[C@@H]65)C2)C1 [Vindesine]
How it was run: as §1

Midostaurin hydrate = compound: CO[C@@H]1[C@H](N(C)C(=O)c2ccccc2)C[C@H]2O[C@]1(C)n1c3ccccc3c3c4c(c5c6ccccc6n2c5c31)C(=O)NC4 [Midostaurin hydrate]
How it was run: as §1

Everolimus = compound: CO[C@H]1C[C@@H]2CC[C@@H](C)[C@@](O)(O2)C(=O)C(=O)N2CCCC[C@H]2C(=O)O[C@H]([C@H](C)C[C@@H]2CC[C@@H](OCCO)[C@H](OC)C2)CC(=O)[C@H](C)/C=C(\C)[C@@H](O)[C@@H](OC)C(=O)[C@H](C)C[C@H](C)/C=C/C=C/C=C/1C [Everolimus]
How it was run: as §1

Idasanutlin (RS7388) = compound: COc1cc(C(=O)O)ccc1NC(=O)[C@@H]1N[C@@H](CC(C)(C)C)[C@](C#N)(c2ccc(Cl)cc2F)[C@H]1c1cccc(Cl)c1F [Idasanutlin (RS7388)]
How it was run: as §1

Etoposide = compound: COc1cc([C@@H]2c3cc4c(cc3[C@@H](O[C@@H]3O[C@@H]5CO[C@@H](C)O[C@H]5[C@H](O)[C@H]3O)[C@H]3COC(=O)[C@H]23)OCO4)cc(OC)c1O [Etoposide]
How it was run: as §1

Tofacitinib = compound: C[C@@H]1CCN(C(=O)CC#N)C[C@@H]1N(C)c1ncnc2[nH]ccc12 [Tofacitinib]
How it was run: as §1

Duvelisib = compound: C[C@H](Nc1ncnc2nc[nH]c12)c1cc2cccc(Cl)c2c(=O)n1-c1ccccc1 [Duvelisib]
How it was run: as §1

Bendamustine = compound: Cn1c(CCCC(=O)O)nc2cc(N(CCCl)CCCl)ccc21 [Bendamustine]
How it was run: as §1

Pomalidomide = compound: Nc1cccc2c1C(=O)N(C1CCC(=O)NC1=O)C2=O [Pomalidomide]
How it was run: as §1

[1] = compound: O=C(Nc1ccc2[nH]nc(-c3ccncc3)c2c1)[C@@H]1CCN(CC(=O)N2CCN(c3ccc(-c4ncccn4)cc3)CC2)C1
How it was run: as §1

Chlorambucil = compound: O=C(O)CCCc1ccc(N(CCCl)CCCl)cc1 [Chlorambucil]
How it was run: as §1

Entospletinib = compound: c1cn2cc(-c3ccc4cn[nH]c4c3)nc(Nc3ccc(N4CCOCC4)cc3)c2n1 [Entospletinib]
How it was run: as §1

## primary MCL patient cells (S053)
SGC 0946; 0.024 µM
  viability: 0.86
SGC 0946; 0.12 µM
  viability: 0.847
SGC 0946; 0.6 µM
  viability: 0.807
SGC 0946; 3 µM
  viability: 0.787
SGC 0946; 15 µM
  viability: 0.503
Roscovitine; 0.032 µM
  viability: 0.884
Roscovitine; 0.16 µM
  viability: 0.802
Roscovitine; 0.8 µM
  viability: 0.928
Roscovitine; 4 µM
  viability: 0.836
Roscovitine; 20 µM
  viability: 0.338
Vindesine; 0.016 µM
  viability: 0.462
Vindesine; 0.08 µM
  viability: 0.346
Vindesine; 0.4 µM
  viability: 0.362
Vindesine; 2 µM
  viability: 0.321
Vindesine; 10 µM
  viability: 0.339
Midostaurin hydrate; 0.024 µM
  viability: 0.943
Midostaurin hydrate; 0.12 µM
  viability: 0.965
Midostaurin hydrate; 0.6 µM
  viability: 0.908
Midostaurin hydrate; 3 µM
  viability: 0.731
Midostaurin hydrate; 15 µM
  viability: 0.341
Everolimus; 0.0032 µM
  viability: 0.958
Everolimus; 0.016 µM
  viability: 0.928
Everolimus; 0.08 µM
  viability: 0.926
Everolimus; 0.4 µM
  viability: 0.959
Everolimus; 2 µM
  viability: 0.881
Idasanutlin (RS7388); 0.032 µM
  viability: 0.524
Idasanutlin (RS7388); 0.16 µM
  viability: 0.511
Idasanutlin (RS7388); 0.8 µM
  viability: 0.348
Idasanutlin (RS7388); 4 µM
  viability: 0.226
Idasanutlin (RS7388); 20 µM
  viability: 0.279
Etoposide; 0.032 µM
  viability: 0.995
Etoposide; 0.16 µM
  viability: 0.727
Etoposide; 0.8 µM
  viability: 0.587
Etoposide; 4 µM
  viability: 0.536
Etoposide; 20 µM
  viability: 0.357
Tofacitinib; 0.024 µM
  viability: 0.923
Tofacitinib; 0.12 µM
  viability: 0.947
Tofacitinib; 0.6 µM
  viability: 0.973
Tofacitinib; 3 µM
  viability: 1.17
Tofacitinib; 15 µM
  viability: 1.32
Duvelisib; 0.0016 µM
  viability: 0.929
Duvelisib; 0.008 µM
  viability: 0.878
Duvelisib; 0.04 µM
  viability: 0.859
Duvelisib; 0.2 µM
  viability: 0.843
Duvelisib; 1 µM
  viability: 0.724
Bendamustine; 0.032 µM
  viability: 0.96
Bendamustine; 0.16 µM
  viability: 1.08
Bendamustine; 0.8 µM
  viability: 0.878
Bendamustine; 4 µM
  viability: 0.715
Bendamustine; 20 µM
  viability: 0.371
Pomalidomide; 0.0032 µM
  viability: 1.14
Pomalidomide; 0.016 µM
  viability: 1.27
Pomalidomide; 0.08 µM
  viability: 1.21
Pomalidomide; 0.4 µM
  viability: 1.17
Pomalidomide; 2 µM
  viability: 1.15
[1]; 0.008 µM
  viability: 0.878
[1]; 0.04 µM
  viability: 0.898
[1]; 0.2 µM
  viability: 0.808
[1]; 1 µM
  viability: 0.728
[1]; 5 µM
  viability: 0.653
Chlorambucil; 0.032 µM
  viability: 0.975
Chlorambucil; 0.16 µM
  viability: 0.894
Chlorambucil; 0.8 µM
  viability: 0.799
Chlorambucil; 4 µM
  viability: 0.54
Chlorambucil; 20 µM
  viability: 0.249
Entospletinib; 0.024 µM
  viability: 1.04
Entospletinib; 0.12 µM
  viability: 1.01
Entospletinib; 0.6 µM
  viability: 0.825
Entospletinib; 3 µM
  viability: 1.03
Entospletinib; 15 µM
  viability: 0.912

## primary MCL patient cells (S068)
SGC 0946; 0.024 µM
  viability: 0.822
SGC 0946; 0.12 µM
  viability: 0.893
SGC 0946; 0.6 µM
  viability: 0.877
SGC 0946; 3 µM
  viability: 0.79
SGC 0946; 15 µM
  viability: 0.462
Roscovitine; 0.032 µM
  viability: 0.834
Roscovitine; 0.16 µM
  viability: 0.913
Roscovitine; 0.8 µM
  viability: 0.772
Roscovitine; 4 µM
  viability: 0.717
Roscovitine; 20 µM
  viability: 0.351
Vindesine; 0.016 µM
  viability: 0.511
Vindesine; 0.08 µM
  viability: 0.439
Vindesine; 0.4 µM
  viability: 0.43
Vindesine; 2 µM
  viability: 0.322
Vindesine; 10 µM
  viability: 0.269
Midostaurin hydrate; 0.024 µM
  viability: 0.901
Midostaurin hydrate; 0.12 µM
  viability: 0.855
Midostaurin hydrate; 0.6 µM
  viability: 0.699
Midostaurin hydrate; 3 µM
  viability: 0.431
Midostaurin hydrate; 15 µM
  viability: 0.24
Everolimus; 0.0032 µM
  viability: 0.66
Everolimus; 0.016 µM
  viability: 0.642
Everolimus; 0.08 µM
  viability: 0.643
Everolimus; 0.4 µM
  viability: 0.657
Everolimus; 2 µM
  viability: 0.685
Idasanutlin (RS7388); 0.032 µM
  viability: 0.916
Idasanutlin (RS7388); 0.16 µM
  viability: 0.998
Idasanutlin (RS7388); 0.8 µM
  viability: 0.916
Idasanutlin (RS7388); 4 µM
  viability: 0.74
Idasanutlin (RS7388); 20 µM
  viability: 0.646
Etoposide; 0.032 µM
  viability: 1.03
Etoposide; 0.16 µM
  viability: 0.956
Etoposide; 0.8 µM
  viability: 0.952
Etoposide; 4 µM
  viability: 0.933
Etoposide; 20 µM
  viability: 0.624
Tofacitinib; 0.024 µM
  viability: 0.953
Tofacitinib; 0.12 µM
  viability: 0.948
Tofacitinib; 0.6 µM
  viability: 0.896
Tofacitinib; 3 µM
  viability: 0.884
Tofacitinib; 15 µM
  viability: 0.757
Duvelisib; 0.0016 µM
  viability: 0.69
Duvelisib; 0.008 µM
  viability: 0.635
Duvelisib; 0.04 µM
  viability: 0.572
Duvelisib; 0.2 µM
  viability: 0.585
Duvelisib; 1 µM
  viability: 0.493
Bendamustine; 0.032 µM
  viability: 0.962
Bendamustine; 0.16 µM
  viability: 0.942
Bendamustine; 0.8 µM
  viability: 0.956
Bendamustine; 4 µM
  viability: 0.926
Bendamustine; 20 µM
  viability: 0.656
Pomalidomide; 0.0032 µM
  viability: 0.909
Pomalidomide; 0.016 µM
  viability: 0.93
Pomalidomide; 0.08 µM
  viability: 0.98
Pomalidomide; 0.4 µM
  viability: 0.929
Pomalidomide; 2 µM
  viability: 0.767
[1]; 0.008 µM
  viability: 0.882
[1]; 0.04 µM
  viability: 0.828
[1]; 0.2 µM
  viability: 0.768
[1]; 1 µM
  viability: 0.7
[1]; 5 µM
  viability: 0.665
Chlorambucil; 0.032 µM
  viability: 1.02
Chlorambucil; 0.16 µM
  viability: 1.03
Chlorambucil; 0.8 µM
  viability: 0.941
Chlorambucil; 4 µM
  viability: 0.857
Chlorambucil; 20 µM
  viability: 0.624
Entospletinib; 0.024 µM
  viability: 0.935
Entospletinib; 0.12 µM
  viability: 0.92
Entospletinib; 0.6 µM
  viability: 0.872
Entospletinib; 3 µM
  viability: 0.836
Entospletinib; 15 µM
  viability: 0.888

## primary AML patient cells (S017)
SGC 0946; 0.024 µM
  viability: 1.11
SGC 0946; 0.12 µM
  viability: 0.971
SGC 0946; 0.6 µM
  viability: 0.918
SGC 0946; 3 µM
  viability: 0.994
SGC 0946; 15 µM
  viability: 0.853
Roscovitine; 0.032 µM
  viability: 0.916
Roscovitine; 0.16 µM
  viability: 0.992
Roscovitine; 0.8 µM
  viability: 0.999
Roscovitine; 4 µM
  viability: 1.04
Roscovitine; 20 µM
  viability: 0.856
Vindesine; 0.016 µM
  viability: 1.05
Vindesine; 0.08 µM
  viability: 1.11
Vindesine; 0.4 µM
  viability: 1.08
Vindesine; 2 µM
  viability: 1.07
Vindesine; 10 µM
  viability: 0.756
Midostaurin hydrate; 0.024 µM
  viability: 1.12
Midostaurin hydrate; 0.12 µM
  viability: 1.06
Midostaurin hydrate; 0.6 µM
  viability: 1.18
Midostaurin hydrate; 3 µM
  viability: 1.29
Midostaurin hydrate; 15 µM
  viability: 0.73
Everolimus; 0.0032 µM
  viability: 0.776
Everolimus; 0.016 µM
  viability: 0.813
Everolimus; 0.08 µM
  viability: 0.757
Everolimus; 0.4 µM
  viability: 0.779
Everolimus; 2 µM
  viability: 0.726
Idasanutlin (RS7388); 0.032 µM
  viability: 0.934
Idasanutlin (RS7388); 0.16 µM
  viability: 1.06
Idasanutlin (RS7388); 0.8 µM
  viability: 1.01
Idasanutlin (RS7388); 4 µM
  viability: 0.835
Idasanutlin (RS7388); 20 µM
  viability: 0.84
Etoposide; 0.032 µM
  viability: 1.08
Etoposide; 0.16 µM
  viability: 1.02
Etoposide; 0.8 µM
  viability: 0.947
Etoposide; 4 µM
  viability: 1.09
Etoposide; 20 µM
  viability: 0.888
Tofacitinib; 0.024 µM
  viability: 0.98
Tofacitinib; 0.12 µM
  viability: 0.959
Tofacitinib; 0.6 µM
  viability: 1
Tofacitinib; 3 µM
  viability: 0.974
Tofacitinib; 15 µM
  viability: 1
Duvelisib; 0.0016 µM
  viability: 1.04
Duvelisib; 0.008 µM
  viability: 1.09
Duvelisib; 0.04 µM
  viability: 0.921
Duvelisib; 0.2 µM
  viability: 0.708
Duvelisib; 1 µM
  viability: 0.627
Bendamustine; 0.032 µM
  viability: 1.12
Bendamustine; 0.16 µM
  viability: 1.1
Bendamustine; 0.8 µM
  viability: 1.09
Bendamustine; 4 µM
  viability: 1.12
Bendamustine; 20 µM
  viability: 1.11
Pomalidomide; 0.0032 µM
  viability: 0.995
Pomalidomide; 0.016 µM
  viability: 1.09
Pomalidomide; 0.08 µM
  viability: 1.07
Pomalidomide; 0.4 µM
  viability: 1.01
Pomalidomide; 2 µM
  viability: 1.03
[1]; 0.008 µM
  viability: 0.92
[1]; 0.04 µM
  viability: 1.01
[1]; 0.2 µM
  viability: 0.838
[1]; 1 µM
  viability: 0.719
[1]; 5 µM
  viability: 0.672
Chlorambucil; 0.032 µM
  viability: 0.969
Chlorambucil; 0.16 µM
  viability: 0.998
Chlorambucil; 0.8 µM
  viability: 0.989
Chlorambucil; 4 µM
  viability: 0.988
Chlorambucil; 20 µM
  viability: 0.955
Entospletinib; 0.024 µM
  viability: 1.03
Entospletinib; 0.12 µM
  viability: 1.13
Entospletinib; 0.6 µM
  viability: 0.915
Entospletinib; 3 µM
  viability: 1.06
Entospletinib; 15 µM
  viability: 1.02
